Source: PMC10602061 (Research Square, 2023)
Ends that are not written are not given here.

Key:
[1] = tested on: NIH/3T3 normal fibroblasts; assay: LDH release (CyQUANT LDH cytotoxicity assay); format: cell-based, murine; conditions: NIH/3T3 fibroblasts, indicated concentration of CKS1, 6 hours; N = 3
Protocol: (§5) 1.0 × 10^4 cells were seeded in a 96-well plate and incubated overnight. The cells were washed once, and the medium was replaced with serum free media. Cells were treated with CKS1 for the indicated time and concentration. CyQUANT LDH cytotoxicity assay (Thermo Fisher Scientific) was used following the manufacturer’s instructions to measure the release of LDH. LDH release was normalized to the amount of LDH released from cells treated with lysis buffer.

[2] = tested on: human umbilical vein endothelial cells (HUVECs); assay: LDH release (CyQUANT LDH cytotoxicity assay); format: cell-based; conditions: indicated concentration of CKS1, 6 hours, N = 3
Protocol: as §5

glioma = glioma model; cited from earlier work
Text: (§1) Chemokinostatin-1 (CKS1) is a 24-mer peptide originally discovered as an anti-angiogenic peptide. Karagiannis and Popel developed a computational method to identify anti-angiogenic sequences contained in the human proteome and discovered common sequences conserved within protein domains contained in angiogenesis-related proteins. CKS1 is derived from a sequence shared in the CXC chemokine family.

[3] = tested on: triple-negative breast cancer (TNBC); conditions: triple-negative breast cancer (TNBC) model; cited from earlier work
Text: as §1

4T1 cells [4] = assay: JC-1 mitochondrial membrane potential imaging; format: cell-based, murine; conditions: 100 μM CKS1, live cell imaging, 25 cells, representative of N = 3
Protocol: (§2) Fluorescence labeling of cells was performed by seeding 5.0 × 10^4 4T1 cells in a 35mm dish on a collagen-coated No. 1.5 coverslip with a 14 mm glass diameter (MatTek, Ashland, MA). After overnight incubation, the cells were washed once with serum free media and replaced with fresh serum free media. For cell membrane labeling, NR12S (R&D Systems, Minneapolis, MN, #7509) was added at a final concentration of 0.3 μM and incubated for 30 minutes. For cell cytosol labeling, Calcein-AM (Thermo Fisher Scientific, C1430) was added at a final concentration of 5 μg/mL and incubated for 10 minutes. For mitochondrial membrane labeling, JC-1 (Thermo Fisher Scientific, T3168) was added at a final concentration of 10 μg/mL and incubated for 10 minutes. For nuclear staining, Hoechst 33342 (Cell Signaling Technology, #4082) was added at a final concentration of 5 μg/mL and incubated for 10 minutes.
(§3) Cells were imaged on either a Zeiss LSM 700 or a 3i spinning disk confocal microscope. Samples were imaged with optimized microscope settings. Z-stack, time-lapse, or multi-channel acquisition settings were adjusted based on the experimental requirements. Images were then acquired with the appropriate excitation and emission wavelengths for each fluorophore.
(§4) Image analysis was performed using Fiji software. For each image/video, the brightness and the contrast were adjusted. […]

4T1 cells [5] = assay: Fluorescence live cell imaging, calcein-AM stained cytosol; format: cell-based, murine; conditions: 100 μM CKS1, live cell imaging
Protocol: as §2, §3, §4

4T1 cells [6] = assay: xCELLigence real-time cell viability assay (RTCA); format: cell-based, murine; conditions: serum free media, representative of N = 3
Protocol: 3,000 cells were seeded in the wells of an xCELLigence RTCA E-plate 16 (Agilent, Santa Clara, CA). After the cells adhered to the plate, the media was replaced with serum free media, and the cells were treated with CKS1 at the indicated concentrations. The viability of the cells was monitored using the xCELLigence RTCA analyzer (Agilent).

4T1 cells [7] = assay: Transmission electron microscopy of cell morphology; format: cell-based, murine; conditions: 100 μM CKS1, 30 minutes
Protocol: Samples were fixed in 2.5% glutaraldehyde, 3 mM MgCl2 in 0.1 M sodium cacodylate buffer, pH 7.2 overnight at 4°C. After buffer rinse, samples were postfixed in 2% osmium tetroxide in 0.1 M sodium cacodylate for at least one hour (no more than two) on ice in the dark. After osmium, samples were rinsed in 0.1 M Maleate buffer (pH 6.2), followed by uranyl acetate in 0.1 M Maleate (0.22 μm filtered, 1 h, dark), dehydrated in a graded series of ethanol and embedded in Epon (PolySci) resin. Samples were polymerized at 60°C overnight. Thin sections, 60 to 90 nm, were cut with a diamond knife on a Leica UCT ultramicrotome and picked up with 2×1 mm Formvar copper slot grids. Grids were stained with 2% uranyl acetate (aq.) followed by lead citrate and observed with a Hitachi 7600 TEM at 80 kV. Images were captured with an AMT CCD XR80 (8-megapixel camera - side mount AMT XR80 – high-resolution highspeed camera).

caspase-3 in 4T1 cells = assay: Caspase-3 activity assay in cell lysate; format: cell-based, murine; conditions: 100 μM CKS1, indicated time, fluorescence divided by protein concentration, N = 3
Protocol: 1.0 × 10^4 4T1 cells were seeded in 96-well plates and incubated overnight. After CKS1 treatment, the cells were lysed using lysis buffer (Cell Signaling Technology, #7018). The activity of caspase-3 in the cell lysate was quantified using the caspase-3 activity assay kit (Cell Signaling Technology, #5723) following the manufacturer’s instructions. Briefly, the cell lysate was incubated with a substrate of caspase-3 which was designed to emit fluorescence when cleaved. After incubation, the fluorescence was measured using a plate reader. The protein concentration of the cell lysate was quantified using the DC protein assay kit (Bio-Rad, Hercules, CA). The caspase-3 activity was divided by the protein concentration to obtain the caspase-3 activity per μg/mL protein in the cell lysate.

What does the source list for “NGRKACLNPASPIVKKIIEKMLNS-NH2 [CKS1, Chemokinostatin-1]”?
Cell death (release of LDH) in non-cancerous cells [1]: did not induce cell death; Cell death (release of LDH) in non-cancerous cells [2]: did not induce cell death; Suppression of tumor growth (glioma): efficacy in suppressing tumor growth was demonstrated; Suppression of tumor growth [3]: efficacy in suppressing tumor growth was demonstrated; Mitochondrial membrane potential (JC-1 green/red fluorescence) (4T1 cells [4]): rapidly diminishes the mitochondrial membrane potential; Events after treatment in calcein-AM stained cells (4T1 cells [5]): influx of the surrounding media into the cells; Time after treatment at which cell death (reduction in cell index) was observed (4T1 cells [6]; 4T1 cells, 3,000 cells per well): ≤ 1 h; Dose dependence of cell death (reduction in cell index) (4T1 cells [6]; 4T1 cells): dose-dependent; Cell membrane integrity by electron microscopy (4T1 cells [7]): ruptured; Nuclear membrane integrity by electron microscopy (4T1 cells [7]): not ruptured; Activity of caspase-3 (caspase-3 in 4T1 cells): increased
